Source: ChEMBL document CHEMBL3431459, “Roche carnitine palmitoyltransferase modulator screening data (supplementary data associated with the publication CHEMBL2216752)”
Values after ≈ are worked out from the molar mass of the structure shown.

Experiments:
[1] = molecular target: T1, Carnitine O-palmitoyltransferase 1, muscle isoform (Homo sapiens, UniProt Q92523); experiment: SUPPLEMENTARY: Inhibition of Carnitine palmitoyltransferase 1, muscle isoform; design: species or system Muscle tissue
T1 sequence (Q92523 whole entry): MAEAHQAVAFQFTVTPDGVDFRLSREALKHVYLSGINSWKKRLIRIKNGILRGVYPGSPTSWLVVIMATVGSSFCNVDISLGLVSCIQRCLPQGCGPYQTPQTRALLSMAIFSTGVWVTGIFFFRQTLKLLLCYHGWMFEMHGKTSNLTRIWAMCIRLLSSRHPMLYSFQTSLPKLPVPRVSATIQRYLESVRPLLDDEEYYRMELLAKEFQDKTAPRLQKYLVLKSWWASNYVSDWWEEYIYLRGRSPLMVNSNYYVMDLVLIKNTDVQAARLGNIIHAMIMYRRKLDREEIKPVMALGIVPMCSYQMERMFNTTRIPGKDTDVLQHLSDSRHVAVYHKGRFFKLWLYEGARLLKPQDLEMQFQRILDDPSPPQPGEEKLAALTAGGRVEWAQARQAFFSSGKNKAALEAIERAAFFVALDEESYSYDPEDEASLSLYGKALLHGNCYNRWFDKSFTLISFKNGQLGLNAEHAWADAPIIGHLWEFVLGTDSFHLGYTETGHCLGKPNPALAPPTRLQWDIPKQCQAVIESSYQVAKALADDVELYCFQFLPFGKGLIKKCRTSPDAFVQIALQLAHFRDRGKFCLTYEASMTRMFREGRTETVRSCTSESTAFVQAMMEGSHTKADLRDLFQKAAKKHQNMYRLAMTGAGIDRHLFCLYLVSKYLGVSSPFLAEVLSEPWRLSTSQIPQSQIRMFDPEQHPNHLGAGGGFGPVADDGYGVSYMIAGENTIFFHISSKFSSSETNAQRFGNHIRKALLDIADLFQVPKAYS

[2] = molecular target: T2, Carnitine O-palmitoyltransferase 2, mitochondrial (Homo sapiens, UniProt P23786); experiment: (§1) SUPPLEMENTARY: Inhibition of Carnitine palmitoyltransferase 2
T2 sequence (P23786 whole entry): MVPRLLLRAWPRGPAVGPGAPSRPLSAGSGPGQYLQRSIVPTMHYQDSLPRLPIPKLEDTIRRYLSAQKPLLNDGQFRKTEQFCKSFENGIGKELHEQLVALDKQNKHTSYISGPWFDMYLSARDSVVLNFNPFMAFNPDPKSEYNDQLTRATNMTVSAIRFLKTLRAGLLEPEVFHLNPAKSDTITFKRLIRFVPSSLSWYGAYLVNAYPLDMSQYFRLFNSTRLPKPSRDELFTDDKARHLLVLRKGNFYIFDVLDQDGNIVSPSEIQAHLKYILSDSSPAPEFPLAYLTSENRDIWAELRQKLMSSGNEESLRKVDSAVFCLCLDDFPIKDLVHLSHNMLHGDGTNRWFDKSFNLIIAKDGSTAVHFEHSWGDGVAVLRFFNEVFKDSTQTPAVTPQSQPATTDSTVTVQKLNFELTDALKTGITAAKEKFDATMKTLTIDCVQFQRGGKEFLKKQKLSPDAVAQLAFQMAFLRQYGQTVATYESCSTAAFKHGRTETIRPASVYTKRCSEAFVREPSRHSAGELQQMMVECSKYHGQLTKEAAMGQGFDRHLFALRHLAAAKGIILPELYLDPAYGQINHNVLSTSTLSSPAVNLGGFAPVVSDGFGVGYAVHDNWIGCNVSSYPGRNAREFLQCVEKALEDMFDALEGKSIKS

[3] = molecular target: T3, Carnitine O-palmitoyltransferase 2, mitochondrial (Rattus norvegicus, UniProt P18886); experiment: as §1
T3 sequence (P18886 whole entry): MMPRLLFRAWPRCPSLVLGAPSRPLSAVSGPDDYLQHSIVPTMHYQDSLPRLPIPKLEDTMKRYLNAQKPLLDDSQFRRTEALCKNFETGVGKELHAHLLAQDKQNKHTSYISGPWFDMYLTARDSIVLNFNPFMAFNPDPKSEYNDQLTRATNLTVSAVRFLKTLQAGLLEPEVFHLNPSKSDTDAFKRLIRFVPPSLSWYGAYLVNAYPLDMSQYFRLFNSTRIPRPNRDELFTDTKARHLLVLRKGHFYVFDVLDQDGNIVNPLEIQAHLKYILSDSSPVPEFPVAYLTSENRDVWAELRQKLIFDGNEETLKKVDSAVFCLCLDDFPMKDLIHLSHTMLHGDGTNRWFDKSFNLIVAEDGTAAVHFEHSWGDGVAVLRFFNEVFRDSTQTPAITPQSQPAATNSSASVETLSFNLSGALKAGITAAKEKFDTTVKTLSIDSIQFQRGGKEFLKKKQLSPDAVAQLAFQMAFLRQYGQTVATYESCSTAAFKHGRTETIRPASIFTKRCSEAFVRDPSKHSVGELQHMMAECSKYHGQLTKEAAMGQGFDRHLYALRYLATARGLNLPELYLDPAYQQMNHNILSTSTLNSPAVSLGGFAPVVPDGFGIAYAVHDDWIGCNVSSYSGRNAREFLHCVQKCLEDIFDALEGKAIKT

[4] = SUPPLEMENTARY: Lyophilisation Solubility Assay (LYSA); format: physicochemical; details: read-out: Kinetic_solubility
[5] = SUPPLEMENTARY: Lipophilicity (log D) Determination by high-throughput shake-flask; format: physicochemical; details: octanol/water
[6] = SUPPLEMENTARY: PAMPA permeability assay; format: physicochemical; details: read-out: Permeability
[7] = molecular target: T4, Carnitine O-palmitoyltransferase 1, liver isoform (Rattus norvegicus, UniProt P32198); experiment: (§2) SUPPLEMENTARY: Inhibition of Carnitine palmitoyltransferase 1, liver isoform
T4 sequence (P32198 whole entry): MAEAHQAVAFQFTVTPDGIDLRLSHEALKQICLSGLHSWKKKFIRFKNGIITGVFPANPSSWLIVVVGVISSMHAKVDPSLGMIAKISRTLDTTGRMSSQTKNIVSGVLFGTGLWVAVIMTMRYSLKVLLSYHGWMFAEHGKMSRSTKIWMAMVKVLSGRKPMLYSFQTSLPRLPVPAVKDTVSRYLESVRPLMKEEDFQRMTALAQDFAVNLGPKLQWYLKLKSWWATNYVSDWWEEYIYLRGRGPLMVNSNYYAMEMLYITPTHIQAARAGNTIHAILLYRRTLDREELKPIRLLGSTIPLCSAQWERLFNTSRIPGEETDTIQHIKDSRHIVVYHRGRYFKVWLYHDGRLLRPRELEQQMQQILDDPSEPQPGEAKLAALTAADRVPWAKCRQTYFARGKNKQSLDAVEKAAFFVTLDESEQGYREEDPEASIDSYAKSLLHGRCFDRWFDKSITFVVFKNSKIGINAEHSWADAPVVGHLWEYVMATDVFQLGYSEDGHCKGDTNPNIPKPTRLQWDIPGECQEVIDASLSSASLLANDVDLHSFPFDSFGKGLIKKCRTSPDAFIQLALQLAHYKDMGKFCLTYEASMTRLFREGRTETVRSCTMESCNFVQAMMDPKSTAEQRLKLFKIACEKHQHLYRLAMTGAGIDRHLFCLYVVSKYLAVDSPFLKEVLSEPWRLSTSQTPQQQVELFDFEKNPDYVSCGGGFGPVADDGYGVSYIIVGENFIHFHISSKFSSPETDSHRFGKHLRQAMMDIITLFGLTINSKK

[8] = molecular target: T5, Carnitine O-palmitoyltransferase 1, liver isoform (Homo sapiens, UniProt P50416); experiment: as §2
T5 sequence (P50416 whole entry): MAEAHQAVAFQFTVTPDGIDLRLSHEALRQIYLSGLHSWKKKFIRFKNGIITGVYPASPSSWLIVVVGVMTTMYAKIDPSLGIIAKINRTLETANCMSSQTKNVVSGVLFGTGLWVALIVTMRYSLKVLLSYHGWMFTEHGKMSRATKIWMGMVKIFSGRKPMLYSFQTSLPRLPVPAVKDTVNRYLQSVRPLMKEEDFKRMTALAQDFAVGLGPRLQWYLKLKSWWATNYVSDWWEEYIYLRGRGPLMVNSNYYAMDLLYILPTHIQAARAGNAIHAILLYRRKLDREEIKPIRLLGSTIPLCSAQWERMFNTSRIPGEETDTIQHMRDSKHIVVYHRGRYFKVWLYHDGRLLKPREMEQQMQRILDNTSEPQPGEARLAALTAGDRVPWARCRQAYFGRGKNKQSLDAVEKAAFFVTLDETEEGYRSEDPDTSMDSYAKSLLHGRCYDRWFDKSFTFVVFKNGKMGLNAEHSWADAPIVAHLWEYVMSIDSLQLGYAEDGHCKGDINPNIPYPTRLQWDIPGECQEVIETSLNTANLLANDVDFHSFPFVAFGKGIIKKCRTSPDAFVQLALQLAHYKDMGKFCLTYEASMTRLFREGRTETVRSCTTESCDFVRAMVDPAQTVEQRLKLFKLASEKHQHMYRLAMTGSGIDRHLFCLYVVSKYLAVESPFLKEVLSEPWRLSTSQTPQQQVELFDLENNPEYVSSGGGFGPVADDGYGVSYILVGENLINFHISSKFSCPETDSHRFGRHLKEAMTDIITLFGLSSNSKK

`O=C(COc1ccccc1)N1CCCC[C@@H]1c1noc(-c2ccc3[nH]cnc3c2)n1` showed an IC50 [1] of 33100 nM, an IC50 [2] of 15000 nM and an IC50 [3] of 66800 nM. It also gave a solubility kinetic [4] of 60 µg/mL (≈ 149 µM), a logD [5] of 2.26 and a Papp [6] of 3.03 ×10⁻⁶ cm/s. It also gave an IC50 [7] of 234 nM and an IC50 [8] of 29.2 nM.

With `O=C(COc1ccccc1)N1CCCC[C@@H]1c1nc(-c2ccc(=O)[nH]c2)no1` the IC50 [1] was > 100000 nM, the IC50 [2] was 97900 nM and the IC50 [3] was > 100000 nM. The solubility kinetic [4] was 161 µg/mL (≈ 423 µM), the logD [5] was 1.83 and the Papp [6] was 4.75 ×10⁻⁶ cm/s. For the same molecule, the IC50 [7] was 1190 nM and the IC50 [8] was 325 nM.

For `COc1ccc(Cl)cc1CN1C(=O)OC(C)(C)c2ccc(C(=O)Nc3ccc(CC(=O)O)cc3)cc21`, the IC50 [1] was 2330 nM, the IC50 [2] was > 100000 nM and the IC50 [3] was > 100000 nM. It also gave a solubility kinetic [4] of 26 µg/mL (≈ 51.1 µM), a logD [5] of 0.51 and a Papp [6] of 1.71 ×10⁻⁶ cm/s. For the same molecule, the IC50 [7] was 41.9 nM and the IC50 [8] was 147 nM.

With `COc1ccc(Cl)cc1Cn1cc(C(=O)O)c2ccc(C(=O)Nc3ccccc3)cc21` the IC50 [1] was > 100000 nM, the IC50 [2] was > 100000 nM and the IC50 [3] was > 100000 nM. The solubility kinetic [4] was < 1 µg/mL, the logD [5] was 3.13 and the Papp [6] was 0.53 ×10⁻⁶ cm/s. The IC50 [7] was 104 nM and the IC50 [8] was 99.6 nM.

For `O=C(COc1ccccc1)N1CCCC[C@@H]1c1noc(-c2ccc3snnc3c2)n1`, the IC50 [1] was > 100000 nM, the IC50 [2] was 2740 nM and the IC50 [3] was 42600 nM. The solubility kinetic [4] was 1 µg/mL (≈ 2.37 µM), the logD [5] was > 3 and the Papp [6] was 2.42 ×10⁻⁶ cm/s. The IC50 [7] was 182 nM and the IC50 [8] was 78.4 nM.

For `O=C(O)Cc1csc(NC(=O)c2ccc3c(c2)N(S(=O)(=O)c2cccc(Cl)c2)CCO3)n1`, the IC50 [1] was 618 nM, the IC50 [2] was > 100000 nM and the IC50 [3] was > 100000 nM. For the same molecule, the solubility kinetic [4] was 54 µg/mL (≈ 109 µM), the logD [5] was 0.37 and the Papp [6] was 2.91 ×10⁻⁶ cm/s. It also gave an IC50 [7] of 11.5 nM and an IC50 [8] of 22.6 nM.

For `O=C(COc1ccccc1)N1CCCC[C@@H]1c1noc(-c2cccc3[nH]cnc23)n1`, the IC50 [1] was > 100000 nM, the IC50 [2] was 84200 nM and the IC50 [3] was > 100000 nM. It also gave a solubility kinetic [4] of 30 µg/mL (≈ 74.4 µM), a logD [5] of 2.84 and a Papp [6] of 1.67 ×10⁻⁶ cm/s. The IC50 [7] was 189 nM and the IC50 [8] was 87.3 nM.

For `CC(=O)Nc1cccc(-c2nc([C@H]3CCCCN3C(=O)COc3ccccc3)no2)c1`, the IC50 [1] was > 100000 nM, the IC50 [2] was 72800 nM and the IC50 [3] was > 100000 nM. For the same molecule, the solubility kinetic [4] was 17 µg/mL (≈ 40.4 µM), the logD [5] was 3.01 and the Papp [6] was 2.55 ×10⁻⁶ cm/s. The IC50 [7] was 104 nM and the IC50 [8] was 43.8 nM.

With `COc1ccc(Cl)cc1S(=O)(=O)N1CCSc2ccc(C(=O)Nc3nc(CC(=O)O)cs3)cc21` the IC50 [1] was 992 nM, the IC50 [2] was > 100000 nM and the IC50 [3] was > 100000 nM. It also gave a solubility kinetic [4] of 5 µg/mL (≈ 9.26 µM), a logD [5] of 0.39 and a Papp [6] of 3.65 ×10⁻⁶ cm/s. For the same molecule, the IC50 [7] was 20.4 nM and the IC50 [8] was 11.6 nM.

With `O=C(COc1ccccc1)N1CCNC[C@@H]1c1nc(-c2ccc3[nH]cnc3c2)no1` the IC50 [1] was > 100000 nM, the IC50 [2] was > 100000 nM and the IC50 [3] was > 100000 nM. It also gave a solubility kinetic [4] of 367 µg/mL (≈ 907 µM), a logD [5] of 1.63 and a Papp [6] of 1.53 ×10⁻⁶ cm/s. It also gave an IC50 [7] of 9640 nM and an IC50 [8] of 132 nM.

`COc1ccc(Cl)cc1S(=O)(=O)N1CC[S+]([O-])c2ccc(C(=O)Nc3ccc(C(=O)O)cc3)cc21` (stereo not drawn) showed an IC50 [1] of 17200 nM, an IC50 [2] of 2530 nM and an IC50 [3] of 55600 nM. It also gave a solubility kinetic [4] of 34 µg/mL (≈ 63.6 µM), a logD [5] of -0.34 and a Papp [6] of 0.12 ×10⁻⁶ cm/s. The IC50 [7] was 36.8 nM and the IC50 [8] was 94.1 nM.
